≈ marks a conversion by molar mass, not a printed value. Read-outs that look alike come from different tables or passages of the source. Square brackets hold non-standard residues; d marks the D form. Peptide text beside a SMILES is read from it. NMeM = CN[C@@H](CCSC)C(=O)O; NMeA = CN[C@@H](C)C(=O)O
What was measured:
K. pneumoniae = assay type: cell-based, Klebsiella pneumoniae; details: Table 8
Outline: (§1)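 MHB II cation-adjusted, peptides 2-fold series (top 400-800 μM final), inoculum OD600 ~0.0002, EDTA 0.5 mM (E. coli) / 0.125 mM (USA300) final. 37° C, 20 h, OD600 read-out.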

E. coli ΔwaaD + vect. = assay: MIC assay, E. coli ΔwaaD + vect.; assay type: cell-based, Escherichia coli; details: Table 7
Protocol: (§2) Bacterial growth conditions. LB or Mueller Hinton II cation-adjusted broth (MHB II, BBL 212322) was prepared according to manufacturer's instructions and supplemented with arabinose at 0.02% for overnight growth or at indicated concentrations in the description of the figures. Bacterial cultures were grown at 37° C. When appropriate, media was supplemented with kanamycin (50 μg/mL), carbenicillin (50 μg/mL), chloramphenicol (12.5 or 25 μg/mL), hygromycin (200 μg/mL), and/or gentamicin (10 μg/mL).
(§3) Peptide sensitivity and MIC assays. Lyophilized peptides (Smartox Biotechnology, CPC Scientific. ABclonal) were solubilized to 10 mM in Tris buffer, pH 8, prior to making a 2-fold dilution series in MHBII cation adjusted broth with highest final assay concentration of 400-800 μM. Bacteria were grown to log phase and added to final OD600˜0.001. The final EDTA concentration was 0.5 mM for E. coli strains and 0.125 mM for USA300. The final volume of 10 μL/well in a 384 well black, clear bottom plate (Corning) was spun <1 min at <250×g and then incubated at 37° C. After 4 h, an equal volume (10 μL) of BacTiter-Glo™ (Promega) was added to each well and luminescence was read after 5 min on an EnVision plate reader (PerkinElmer). To measure the minimal inhibitory concentrations (MICs), bacteria from fresh overnight plates or log phase cultures were diluted with or without EDTA and peptides as described above to final OD600˜0.0002. Plates were incubated at 37° C. for 20 h before measuring OD600 with an EnVision plate reader.

E. coli ΔwaaD MCR-1 = assay: MIC assay, E. coli ΔwaaD MCR-1; assay type: cell-based, Escherichia coli; details: Table 7
Protocol: as §2, §3

E. coli BW25113 = assay type: cell-based, Escherichia coli
Outline: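 Growth inhibition: log-phase cells (OD600 ~0.001), peptides in 2-fold series up to 400–800 μM in MHB II, EDTA 0.5 mM (E. coli) or 0.125 mM (USA300), 4 h at 37 °C, ATP luminescence readout. MICs: inoculum at OD600 ~0.0002, with or without EDTA, 20 h at 37 °C, OD600 endpoint.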

S. aureus USA300 = assay: MIC assay, S. aureus USA300; assay type: cell-based, Staphylococcus aureus; details: Table 7
Protocol: as §2, §3

E. coli imp4213 = assay: MIC assay, E. coli imp4213; assay type: cell-based, Escherichia coli; details: Table 7
Protocol: as §2, §3

A. baumannii = assay type: cell-based, Acinetobacter baumannii; details: Table 8
Outline: as §1

P. aeruginosa = assay type: cell-based, Pseudomonas aeruginosa; details: Table 8
Outline: as §1

Row | Compound | MIC K. pneumoniae (K. pneumoniae) [µM] | MIC E. coli ΔwaaD + vect. (E. coli ΔwaaD + vect.) [µM] | MIC E coli ΔwaaD − MCR1 (E. coli ΔwaaD MCR-1) | MIC E. coli BW25113 (E. coli BW25113; Table 8) [µM] | MIC S. aureus USA300 (S. aureus USA300) [µM] | MIC E. coli imp4213 (E. coli imp4213) [µM] | MIC A. baumannii (A. baumannii) [µM] | MIC R. aeruginosa (P. aeruginosa) [µM] | MIC E. coli BW25113 (E. coli BW25113; Table 7, no EDTA) [µM]
1 | CSCC[C@@H](C(=O)N[C@H](C(=O)N(C)[C@@H](C)C(=O)N[C@@H](CCCNC(=N)N)C(=O)N[C@@H](CCCNC(=N)N)C(=O)N[C@@H](Cc1ccccc1)C(=O)N[C@@H](CC(C)C)C(=O)N[C@@H](CCC(=O)O)C(=O)N[C@@H](CCCCN)C(=O)N[C@@H](Cc1c[nH]c2ccccc12)C(=O)NCC(=O)N[C@@H](CC(C)C)C(=O)N[C@@H](CC(C)C)C(=O)N[C@@H](CCCNC(=N)N)C(N)=O)[C@@H](C)O)N(C)C(=O)[C@@H]1CCCN1C(=O)[C@H](Cc1ccc(O)cc1)NC(C)=O [compound 65] (Ac-YP[NMeM]T[NMeA]RRFLEKWGLLR-NH2) | 200 (≈ 421 µg/mL) | <6.25 | 100 µM (≈ 211 µg/mL) | 200 (≈ 421 µg/mL) | 800 (≈ 1690 µg/mL) | 12.5 (≈ 26.3 µg/mL) | 50 (≈ 105 µg/mL) | 800 (≈ 1690 µg/mL) | –
2 | Ac-YPMNARRFLEKWGLLR-NH2 [compound 50] | 800 | 200 | 800/400 | 400 | >400 | 25 | 400 | 800 | –
3 | Ac-YPMSARRFLEKWGLLR-NH2 [compound 49] | 800 | 100 | 400 µM | 400 | >400 | 25 | 200 | 400 | –
4 | Ac-YPMTAQRFLEKWGLLR-NH2 [compound 54] | >800 | 100 | >800 µM | – | >400 | 100 | >800 | >800 | >400
5 | Ac-YPMTARRFLAKWGLLR-NH2 [compound 57] | 400 | 100 | 100/700 | 200 | >400 | 12.5 | 100 | 200 | –
6 | Ac-YPMTARRFLEKWGL-NH2 [compound 44] | >800 | 200 | >800 µM | – | >800 | 100 | >800 | 800 | >400
7 | Ac-YPMTARRYLEKWGLLR-NH2 [compound 56] | 800 | 400 | 800 µM | – | >400 | 25 | 400 | 800 | >400

Source: patent US20220135622A1, “ANTIBACTERIAL PEPTIDES AND METHODS OF USE” (priority 2019, published 2022)
